Results from PubChem BioAssay (NCI).
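Compound exposure: 48 hours, 5 concentrations, 96-well plates. The concentration for 50% growth inhibition is given as GI50. TGI: concentration producing complete growth inhibition.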

How the values were obtained:
Test in all cases: NCI tumour cell line growth inhibition, 48 h
NCI-H522 lung = tested on: NCI-H522 lung
SK-MEL-2 melanoma = tested on: SK-MEL-2 melanoma
SK-MEL-28 melanoma = tested on: SK-MEL-28 melanoma
HL-60(TB) leukemia = tested on: HL-60(TB) leukemia
U251 CNS = tested on: U251 CNS
UACC-62 melanoma = tested on: UACC-62 melanoma
K-562 leukemia = tested on: K-562 leukemia
LOX IMVI melanoma = tested on: LOX IMVI melanoma
MDA-MB-231 breast = tested on: MDA-MB-231 breast
T-47D breast = tested on: T-47D breast

Row | Compound | TGI (NCI-H522 lung) [µM] | TGI (SK-MEL-2 melanoma) [µM] | TGI (SK-MEL-28 melanoma) [µM] | TGI (HL-60(TB) leukemia) [µM] | TGI (U251 CNS) [µM] | TGI (UACC-62 melanoma) [µM] | TGI (K-562 leukemia) [µM] | TGI (LOX IMVI melanoma) [µM] | TGI (MDA-MB-231 breast) [µM] | GI50 (SK-MEL-28 melanoma) [µM] | GI50 (HL-60(TB) leukemia) [µM] | GI50 (U251 CNS) [µM] | GI50 (MDA-MB-231 breast) [µM] | GI50 (LOX IMVI melanoma) [µM] | TGI (T-47D breast) [µM] | GI50 (NCI-H522 lung) [µM] | GI50 (SK-MEL-2 melanoma) [µM] | GI50 (T-47D breast) [µM]
1 | COc1ccc(C[C@H](N)C(=O)N2C[C@@H](CO)C[C@@H](n3ccc(=O)[nH]c3=O)C2)cc1 | > 100 | > 100 | > 100 | > 100 | > 100 | > 100 | > 100 | > 100 |  |  |  |  |  |  |  |  |  | 
2 | COC(=O)C1=C(C(=O)OC)SC2(S1)C(C(=O)OC)=C(C(=O)OC)Sc1c2ssc1=NC(C)(C)C |  | 2.82 | 5.02 | 4.73 | 3.54 | 2.97 | 9.66 | 2.4 | 3.44 |  |  |  |  |  |  |  |  | 
3 | O=C(N/N=C/c1cc(Br)cc(Br)c1[O-])c1ccccc1O.O=C(N/N=C/c1cc(Br)cc(Br)c1[O-])c1ccccc1O.[Ni+2] | 0.727 | 1.3 | 1.96 | 0.346 | 1.84 | 0.661 | 4.88 | 1.84 |  |  |  |  |  |  |  |  |  | 
4 | COc1ccc(N2C(=O)C3c4[nH]c5ccccc5c4C4CCCCC4C3C2=O)cc1 (centres undefined) | > 100 | 53.5 | 42.4 | 55.1 | 38.6 | 33.3 | 73.8 | > 100 |  |  |  |  |  |  |  |  |  | 
5 | Cc1nc2ccccc2c(/C=C/c2ccc(Cl)cc2)c1C(=O)/C=C/c1ccccc1 |  |  | 3.22 | 4.58 | 3.07 |  |  | 3.03 | 4.37 | 1.74 | 2.01 | 1.61 | 1.87 | 1.64 |  |  |  | 
6 | C=C(C)CNC(=S)N(N)c1ccc2ccccc2c1 | > 100 |  | > 100 | > 100 | > 100 | 76.8 | > 100 | > 100 | > 100 |  |  |  |  |  | > 100 |  |  | 
7 | Cc1ccc([N+](=O)[O-])c2c(NCC(O)CO)ccnc12 (centres undefined) |  | 53.9 | > 100 | > 100 | > 100 | > 100 | > 100 | > 100 |  |  |  |  |  |  | > 100 |  |  | 
8 | CCOC(=O)C(NC(=O)OC(C)(C)C)C(=O)OCC | > 100 | > 100 | > 100 |  | > 100 | > 100 | > 100 |  |  |  |  |  |  |  | > 100 |  |  | 
9 | Cc1ccc(CCC(=O)C(=O)O)s1 | > 100 | > 100 | > 100 | > 100 | > 100 | 48.6 | > 100 |  |  |  |  |  |  |  |  |  |  | 
10 | NCCCNCCCCN1CC1 | 11.4 |  | > 20.1 |  | > 26.2 | 68.8 | > 20.7 | 11.8 |  |  |  |  |  |  | 1.02 |  |  | 
11 | Cc1sc2nc3n(c(=O)c2c1C)N=CN(c1ccc(F)cc1)C3 | > 100 | > 100 | > 100 |  | > 100 | > 100 | > 100 | > 100 | > 100 |  |  |  |  |  | > 100 |  |  | 
12 | COc1ccc2nc3cc(Cl)ccc3c(NCCNc3c4ccc(Cl)cc4nc4ccc(OC)cc34)c2c1 | 3.23 | 3.5 | 3.4 |  | 3.28 |  |  |  |  | 1.86 |  | 1.77 |  |  | 3.94 | 1.72 | 1.81 | 1.89
